# Results reported in patent publication US11793782B2, “Therapeutic agents for neurodegenerative diseases” (priority 2017, dated 2023).
# Experiments:
# [1] = tested on: Npc1−/− and Npc1+/+ mice; test: Gait analysis (CatWalk), NPC mouse study; assay type: in vivo; conditions: 0.1 g/kg from weaning, eight weeks of age
# Experimental: Separate groups of Npc1^−/− and Npc1^+/+ mice were left untreated, as controls. Gait analysis was performed on mice at eight weeks of age using a CatWalk®15.0 system according to manufacturer's instructions (Noldus, Nottingham, UK). Five runs were recorded per animal. CatWalk® parameters measured were: • 1. Stand Mean: average duration (s) of paws in contact with glass plate; • 2. Step Cycle: duration (s) between two consecutive contacts of the same paw; • 3. Duty Cycle: percentage of time paws in contact with plate compared with time to complete a step cycle; • 4. Step Sequence (AB): percentage of time spent walking in LF-RH-RF-LH alternating pattern (LF: left front; RH: right hind; RF: right front; LH left hind); • 5. Cadence: step per seconds in a trial; • 6. Diagonal Support: percentage of time with simultaneous contact of diagonal paws with the glass plate (RF&LH or RH&LF). Motor Function Analysis
# [2] = tested on: Tay-Sachs disease patient fibroblasts; test: Glycosphingolipid (GSL) levels by HPLC, Tay-Sachs fibroblasts; assay type: cell-based, human; conditions: 1 mM for 6 days, p<0.05
# [3] = tested on: AB variant of Tay-Sachs disease patient fibroblasts; test: Glycosphingolipid (GSL) levels by HPLC, AB variant fibroblasts; assay type: cell-based, human; conditions: 1 mM for 6 days
# [4] = tested on: progressive supranuclear palsy patients; test: Case studies, progressive supranuclear palsy patients; assay type: in vivo, human; conditions: for Clinical observation: 5 g per day; for Symptoms after stopping medication: about two months later
# Experimental: After 27 days of acetyl-leucine treatment, medication was stopped and the patient was re-examined 60 days later. […] Gait analysis was performed before treatment commenced. […] Gait analysis was performed before treatment commenced. After 17 days of treatment, medication was stopped and the patient was re-examined 4 days later. […] Gait analysis was performed before treatment commenced. After three weeks of treatment, medication was stopped and the patient was re-examined.
# [5] = tested on: SCA 1 patient; test: Case study, Spinocerebellar Ataxia (SCA) 1; assay type: in vivo, human
# Description: The patient in this case study was a person who was genetically diagnosed with Spinocerebellar Ataxia (SCA) 1. Before treatment, the patient had severe problems with speaking and swallowing, tremor of both arms, spasticity and moderate ataxia of stance and gait. The patient also had problems sleeping.
# [6] = tested on: amyloid precursor protein C-terminal fragments (APP-CTFs); test: APP-CTF levels in cerebellum of NPC1−/− mice; assay type: in vivo, mouse; conditions: 0.1 g/kg body weight daily from 3 weeks of age, sacrificed at 8 weeks
# Experimental: The Niemann-Pick Disease Type C (NPC) mouse model shares a number of pathological features with Alzheimer's disease (AD) as described herein. […] Mice were sacrificed at 8 weeks of age. Levels of amyloid precursor protein C-terminal fragments (APP-CTFs) were evaluated relative to total amyloid precursor protein (APP) levels in the cerebellum for wild type, untreated wild type NPC1^−/− mice, and AL-treated wild type NPC1^−/− mice. Levels of microtubule-associated protein 1A/1B-light chain 3-phosphatidylethanolamine conjugate (LC3-II) were also evaluated relative to levels of tubulin loading control for wild type, untreated wild type NPC1^−/− mice, and AL-treated wild type NPC1^−/− mice.
structure (smiles),measurement,setting,value
CC(=O)NC(CC(C)C)C(=O)O (racemic) [acetyl-DL-leucine],Gait vs untreated littermates,[1],significantly improved gait
same,GSL storage (decrease),[2],statistically significant
same,GSL levels,[3],trend towards decreased GSL levels
same,Symptoms after suspension of treatment,[4]; PSP Patient 1,symptoms worsened
same,Clinical observation,"[4]; PSP Patient 1, 27 days of treatment",significant reduction of dizziness and slight improvement of gait
same,PSPRS Score,"[4]; PSP Patient 1, re-examined about two months later",remained stable
same,Clinical observation,"[4]; PSP Patient 2, 17 days of treatment, re-examined 4 days after stopping",no significant improvement of gait or hypokinetic rigid syndrome
same,Symptoms after stopping medication,[4]; PSP Patient 2,no deterioration of symptoms
same,Coefficient of variation (temporal),"[4]; PSP Patient 2, after 17 days of treatment, before 8.5",6.6
same,Track width,"[4]; PSP Patient 2, after 17 days of treatment, before 10.3",9.3 cm
same,Functional Gait Assessment,"[4]; PSP Patient 2, after 17 days of treatment, before 15/30",15/30
same,Double stance,"[4]; PSP Patient 2, after 17 days of treatment, before 34.5",28.6%
same,speed,"[4]; PSP Patient 2, after 17 days of treatment, before 51",68 cm/s
same,Step cycle length,"[4]; PSP Patient 2, after 17 days of treatment, before 66",82 cm
same,cadence,"[4]; PSP Patient 2, after 17 days of treatment, before 93",99 steps/minute
same,Max. speed,"[4]; PSP Patient 2, after 17 days of treatment, before 123",98 cm/s
same,Clinical observation,"[4]; PSP Patient 3, 17 days of treatment, re-examined 4 days after stopping",no significant improvement of gait or hypokinetic rigid syndrome
same,Symptoms after stopping medication,[4]; PSP Patient 3,no deterioration of symptoms
same,Coefficient of variation (temporal),"[4]; PSP Patient 3, after 17 days of treatment, before 3.6",3.1
same,Track width,"[4]; PSP Patient 3, after 17 days of treatment, before 15.5",15.1 cm
same,Double stance,"[4]; PSP Patient 3, after 17 days of treatment, before 25.8",24.3%
same,Functional Gait Assessment,"[4]; PSP Patient 3, after 17 days of treatment, before 28/30",27/30
same,speed,"[4]; PSP Patient 3, after 17 days of treatment, before 103",120 cm/s
same,cadence,"[4]; PSP Patient 3, after 17 days of treatment, before 106",112 steps/minute
same,Step cycle length,"[4]; PSP Patient 3, after 17 days of treatment, before 118",129 cm
same,Max. speed,"[4]; PSP Patient 3, after 17 days of treatment, before 163",194 cm/s
same,Clinical observation,"[4]; PSP Patient 4, after three weeks of treatment",gait with increased subjective security and with reduced frequency of falls
same,Functional Gait Assessment,"[4]; PSP Patient 4, after 3 weeks of treatment",14/30
same,Coefficient of variation (temporal),"[4]; PSP Patient 4, after 3 weeks of treatment, before 8.2",6.8
same,Track width,"[4]; PSP Patient 4, after 3 weeks of treatment, before 15.4",13.6 cm
same,speed,"[4]; PSP Patient 4, after 3 weeks of treatment, before 39",65 cm/s
same,Step cycle length,"[4]; PSP Patient 4, after 3 weeks of treatment, before 43",63 cm
same,Double stance,"[4]; PSP Patient 4, after 3 weeks of treatment, before 45.4",36%
same,Max. speed,"[4]; PSP Patient 4, after 3 weeks of treatment, before 70",93 cm/s
same,cadence,"[4]; PSP Patient 4, after 3 weeks of treatment, before 109",125 steps/minute
same,Symptoms without medication,"[4]; PSP Patient 4, after three months without medication",progression of hypokinetic-rigid syndrome
same,Symptoms,"[5]; 5 g/day, three weeks on medication",all symptoms significantly improved
same,Side-effects,[5]; over two years on the same dosage,without any side-effects
same,Intensity of signs and symptoms after stopping,[5]; two weeks after medication was stopped,the same as before therapy
same,APP-CTF levels relative to total APP in the cerebellum,[6],lowering of APP-CTFs
